From patent EP0429372A1, “2-Azolyl nicotinate derivatives as herbicides” (RHONE-POULENC AGROCHIMIE, priority 1989, dated 1991)
Where two headings read alike, the source gives them in different places.

Tests used:
Type in all cases: in vivo
[1] = tested on: mauvaises herbes; details: post-emergence
Source text: (§1) Des quantités appropriées des composés d'essai ont été dissoutes dans de l'acétone pour obtenir des solutions équivalant à des taux d'application de 250, 1000 ou 4000 g de composé d'essai par hectare (g/ha).
Des espèces de mauvaises herbes ont été cultivées, puis transplantées au stade de jeunes plants de semis dans du compost de mise en pot John Innes N°1 dans des pots en matière plastique de 70 mm de côté et 75 mm de profondeur, sauf en ce qui concerne Avena fatua, qui a été semée directement dans le pot d'essai et n' a pas été transplantée. Puis les plantes ont été cultivées dans la serre jusqu'à ce qu'elles soient prêtes à subir une pulvérisation avec les composés d'essai. Le nombre de plantes par pot et la croissance de la plante au moment de la pulvérisation étaient les suivantes :
Les composés d'essai ont été appliquées aux plantes de la manière décrite dans le paragraphe (a) ci-dessus. Un seul pot de chaque espèce de mauvaises a été attribué à chaque traitement, en association avec des témoins n'ayant pas subi de pulvérisation et des témoins ayant subi une pulvérisation avec de l'acétone seule. Après pulvérisation, les pots ont été arrossés par aspersion, en commençant 24 heures après pulvérisation. L'évalutation visuelle de la lutte contre la croissance des mauvaises herbes a été effectuée 17 à 20 jours après pulvérisation. Les résultats ont été exprimés en pourcentage de réduction de croissance ou de mortalité des mauvaises herbes, comparativement aux plantes présentes dans les pots témoins.

[2] = tested on: mauvaises herbes; experiment: Procedure 1 b): weed control, pre-emergence application; details: 4000 g/ha (procédé 1B), visual rating 17 to 20 days after spraying, vs control pots
Source text: as §1
Des graines de mauvaises herbes ont été semées à la surface de compost de mise en pot John Innes N°1 (7 parties par volume de terre végétale stérilisée, 3 parties en volume de gravier fin) dans des pots en matière plastique de 70 mm de côté et 75 mm de profondeur. Les quantités de graines par pot étaient les suivantes :
Les composés de la présente invention ont été appliqués aux graines non recouvertes de la manière décrite dans le paragraphe (a) ci-dessus et ces graines ont été recouvertes avec 25ml de sable liant après pulvérisation. Un seul pot de chaque espèce de mauvaise herbe a été attribué à chaque traitement, en association avec des témoins n'ayant pas subi de pulvérisation et des témoins ayant subi une pulvérisation avec de l'acétone seule. Après traitement, les pots ont été maintenus dans une serre et ont été arrosés par aspersion. L'évaluation visuelle de l'activité de destruction des mauvaises herbes a été effectuée 17 à 20 jours après pulvérisation. Les résultats ont été exprimés par le pourcentage de réduction de croissance ou de mortalité des mauvaises herbes, comparativement aux plantes présentes dans les pots témoins.

[3] = tested on: Polygonum convolvulus; details: 1000 g/ha, 576 h
Source text: (§2) Dans des pots de 7 x 7 x 8 cm remplis de terre agricole légère, on sème un nombre de graines déterminé en fonction de l'espèce végétale et de la grosseur de la graine.
(§3) On recouvre ensuite les graines d'une couche de terre d'environ 3 mm d'épaisseur et on laisse germer la graine jusqu'à ce qu'elle donne naissance à une plantule au stade convenable. Le stade de traitement pour les graminées est le stade "deuxième feuille en formation". Le stade de traitement pour les dicotylédones, est le stade "cotylédons étalés, première feuille vraie en développement".
(§4) Les pots sont alors traités par pulvérisation de bouillie en quantité correspondant à une dose volumique d'application de 500 l/ha et contenant la matière active à la concentration désirée.
(§5) La bouillie a été préparée de la même manière qu'à l'exemple A.
(§6) Les pots traités sont ensuite placés dans des bacs destinés à recevoir l'eau d'arrosage, en subirrigation, et maintenus pendant 24 jours à température ambiante sous 70 % d'humidité relative.
(§7) Au bout de 24 jours, on mesure un pourcentage (D) de destruction du nombre de pieds dans le pot traité par rapport au nombre de plantes dans les pots non traités (témoin). On mesure, sur les plantes traitées restantes, le pourcentage de réduction de taille (RT) par rapport aux plantes témoin.
(§8) Le pourcentage de volume foliaire non détruit par le produit est donc donné par la formule : [formula]
(§9) Cette valeur A est transformée en notation de 0 à 5 selon l'échelle suivante :
(§10) Ainsi, un produit est jugé comme sélectif vis à vis de la culture lorsque la valeur A notée est de 0 ou 1.
(§11) Les résultats obtenus sont présentés dans l'exemple C pour des doses d'application comprises entre 0,5 et 4 kg de matière active par hectare selon les produits.

[4] = tested on: Chrysanthemum segetum; details: post-emergence, 1000 g/ha, 576 h
Source text: as §2, §3, §4, §5, §6, §7, §8, §9, §10, §11

[5] = tested on: Convolvulus arvensis; details: post-emergence, 1000 g/ha, 576 h
Source text: as §2, §3, §4, §5, §6, §7, §8, §9, §10, §11

[6] = tested on: Ipomea purpurea; experiment: Example B: post-emergence herbicidal application, pot test; details: 1000 g/ha, 576 h
Source text: as §2
as §3, with “formation ".” for “formation".”
as §4
(§12) La bouille a été préparée de la même manière qu'à l'exemple A.
as §6, §7
(§13) Le pourcentage du volume foliaire non détruit par le produit est donc donné par la formule : [formula]
as §9
(§14) Les résultats obtenus sont présentés après le tableau A pour des doses d'application de 4000 g/ha.

[7] = tested on: Solanum nigrum; experiment: as above; details: 1000 g/ha, 576 h
Source text: as §2
as §3, with “formation ".” for “formation".”
as §4, §12, §6, §7, §13, §9, §14

[8] = tested on: Digitaria sanguinalis; experiment: as above; details: 1000 g/ha, 576 h
Source text: as §2
as §3, with “formation ".” for “formation".”
as §4, §12, §6, §7, §13, §9, §14

[9] = tested on: Echinochloa crusgalli; experiment: as above; details: 1000 g/ha, 576 h
Source text: as §2
as §3, with “formation ".” for “formation".”
as §4, §12, §6, §7, §13, §9, §14

[10] = tested on: Sinapis alba; experiment: as above; details: 1000 g/ha, 576 h
[11] = tested on: Oryza sativa; experiment: Example C: selectivity test in major crops, post-emergence application; details: crop (Riz), dose 1 kg/ha, 24 days, score 0-5, 0 or 1 = selective; further: ranges in brackets are in %
Source text: as §2, §3, §4, §5, §6, §7, §8, §9, §10, §11

[12] = tested on: Solanum nigrum; experiment: as above; details: 1000 g/ha, 576 h
Source text: as §2, §3, §4, §5, §6, §7, §8, §9, §10, §11

[13] = tested on: Sesbania exaltata; experiment: as above; details: 1000 g/ha, 576 h
Source text: as §2, §3, §4, §5, §6, §7, §8, §9, §10, §11

[14] = tested on: Ipomea pupurea; experiment: as above; details: 1000 g/ha, 576 h
Source text: as §2, §3, §4, §5, §6, §7, §8, §9, §10, §11

[15] = tested on: Xanthium pennsylvanicum; experiment: as above; details: 1000 g/ha, 576 h
Source text: as §2, §3, §4, §5, §6, §7, §8, §9, §10, §11

[16] = tested on: Zea mays; experiment: as above; details: crop (Maïs), dose 1 kg/ha, 24 days, score 0-5, 0 or 1 = selective; further: ranges in brackets are in %
Source text: as §2, §3, §4, §5, §6, §7, §8, §9, §10, §11

[17] = tested on: Triticum aestivum; experiment: as above; details: crop (Blé), dose 1 kg/ha, 24 days, score 0-5, 0 or 1 = selective; further: ranges in brackets are in %
Source text: as §2, §3, §4, §5, §6, §7, §8, §9, §10, §11

[18] = tested on: Viola tricolor; experiment: as above; details: 1000 g/ha, 576 h
Source text: as §2, §3, §4, §5, §6, §7, §8, §9, §10, §11

Compound	réduction de la croissance d'une ou plusieurs des espèces de mauvaises herbes [1] [%]	réduction de la croissance d'une ou plusieurs des espèces de mauvaises herbes [2] [%]	ACTIVITE HERBICIDE DE POST LEVEE P O L [3]	ACTIVITE HERBICIDE DE POST LEVEE C H Y [4]	ACTIVITE HERBICIDE DE POST LEVEE C O N [5]	ACTIVITE DE POST-LEVEE IPO [6]	ACTIVITE DE POST-LEVEE SOL [7]	ACTIVITE DE POST-LEVEE DIG [8]	ACTIVITE DE POST-LEVEE ECH [9]	ACTIVITE DE POST-LEVEE SIN [10]	ACTIVITE HERBICIDE DE POST LEVEE O R Y [11]	ACTIVITE HERBICIDE DE POST LEVEE S O L [12]	ACTIVITE HERBICIDE DE POST LEVEE S E S [13]	ACTIVITE HERBICIDE DE POST LEVEE I P O [14]	ACTIVITE HERBICIDE DE POST LEVEE X A N [15]	ACTIVITE HERBICIDE DE POST LEVEE Z E A [16]	ACTIVITE HERBICIDE DE POST LEVEE T R Z [17]	ACTIVITE HERBICIDE DE POST LEVEE V I O [18]
CN(C)S(=O)(=O)n1c(-c2ncccc2C(=O)OCC(F)(F)F)nc2ccccc21 [compound 100]	≥ 90	≥ 90	–	–	–	–	–	–	–	–	–	–	–	–	–	–	–	–
CN(C)S(=O)(=O)n1c(-c2ncccc2C(=O)O)nc2ccccc21 [compound 122]	–	–	5 (O à 10)	5 (O à 10)	5 (O à 10)	4 (10 à 30)	5 (O à 10)	1 (70 à 90)	2 (50 à 70)	5 (O à 10)	0 (90 à 100)	5 (O à 10)	5 (O à 10)	5 (O à 10)	5 (O à 10)	0 (90 à 100)	0 (90 à 100)	3 (30 à 50)
C=CCOC(=O)c1cccnc1-c1nc2ccccc2n1S(=O)(=O)N(C)C [compound 101]	≥ 90	≥ 90	–	–	–	–	–	–	–	–	–	–	–	–	–	–	–	–
